Columns and labels:
[1] = molecular target: T1, CFTR in F508del/F508del primary CF hBE cells (Homo sapiens, UniProt P13569, DEL508-508); assay: Ussing chamber electrophysiology assay of CFTR potentiation in F508del/F508del CF bronchial epithelial cells (27° C.); type: cell-based
T1 construct: Primary cystic fibrosis human bronchial epithelial (CF hBE) cells were expanded and cultured; endogenous in cells; host or cells: primary CF human bronchial epithelial cells, genotype F508del/F508del
Outline: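 Well-differentiated primary CF hBE cells (>30 days air/liquid interface) in Ussing chambers, HEPES saline both sides, voltage clamped to zero. Amiloride 30 uM, forskolin 10 uM, four rising compound concentrations, then CFTRinh-172 20 uM added at 20-25 min intervals. Short-circuit current scaled to DMSO (0%) and a positive control potentiator maximum (100%).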

[2] = molecular target: T2, recombinant F508del V470 CFTR in Fischer rat thyroid (FRT) cells (Homo sapiens, UniProt P13569, DEL508-508); assay: FRT ion flux assay of F508del CFTR potentiation; type: cell-based; conditions: FRT cells expressing F508del V470 CFTR, forskolin 20 uM, 27° C. pre-incubation
T2 construct: expressed in transfected cells
Outline: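 FRT cells co-expressing F508del V470 CFTR and halide-sensitive YFP, temperature-corrected at 27° C for 16-24 h, then treated 30 min with compound plus 20 uM forskolin. Iodide addition quenches YFP, read after ~21 s; ratio scaled to DMSO (0%) and positive control potentiator (100%).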

T1 sequence (P13569 with tags, fused parts or gaps DEL508-508): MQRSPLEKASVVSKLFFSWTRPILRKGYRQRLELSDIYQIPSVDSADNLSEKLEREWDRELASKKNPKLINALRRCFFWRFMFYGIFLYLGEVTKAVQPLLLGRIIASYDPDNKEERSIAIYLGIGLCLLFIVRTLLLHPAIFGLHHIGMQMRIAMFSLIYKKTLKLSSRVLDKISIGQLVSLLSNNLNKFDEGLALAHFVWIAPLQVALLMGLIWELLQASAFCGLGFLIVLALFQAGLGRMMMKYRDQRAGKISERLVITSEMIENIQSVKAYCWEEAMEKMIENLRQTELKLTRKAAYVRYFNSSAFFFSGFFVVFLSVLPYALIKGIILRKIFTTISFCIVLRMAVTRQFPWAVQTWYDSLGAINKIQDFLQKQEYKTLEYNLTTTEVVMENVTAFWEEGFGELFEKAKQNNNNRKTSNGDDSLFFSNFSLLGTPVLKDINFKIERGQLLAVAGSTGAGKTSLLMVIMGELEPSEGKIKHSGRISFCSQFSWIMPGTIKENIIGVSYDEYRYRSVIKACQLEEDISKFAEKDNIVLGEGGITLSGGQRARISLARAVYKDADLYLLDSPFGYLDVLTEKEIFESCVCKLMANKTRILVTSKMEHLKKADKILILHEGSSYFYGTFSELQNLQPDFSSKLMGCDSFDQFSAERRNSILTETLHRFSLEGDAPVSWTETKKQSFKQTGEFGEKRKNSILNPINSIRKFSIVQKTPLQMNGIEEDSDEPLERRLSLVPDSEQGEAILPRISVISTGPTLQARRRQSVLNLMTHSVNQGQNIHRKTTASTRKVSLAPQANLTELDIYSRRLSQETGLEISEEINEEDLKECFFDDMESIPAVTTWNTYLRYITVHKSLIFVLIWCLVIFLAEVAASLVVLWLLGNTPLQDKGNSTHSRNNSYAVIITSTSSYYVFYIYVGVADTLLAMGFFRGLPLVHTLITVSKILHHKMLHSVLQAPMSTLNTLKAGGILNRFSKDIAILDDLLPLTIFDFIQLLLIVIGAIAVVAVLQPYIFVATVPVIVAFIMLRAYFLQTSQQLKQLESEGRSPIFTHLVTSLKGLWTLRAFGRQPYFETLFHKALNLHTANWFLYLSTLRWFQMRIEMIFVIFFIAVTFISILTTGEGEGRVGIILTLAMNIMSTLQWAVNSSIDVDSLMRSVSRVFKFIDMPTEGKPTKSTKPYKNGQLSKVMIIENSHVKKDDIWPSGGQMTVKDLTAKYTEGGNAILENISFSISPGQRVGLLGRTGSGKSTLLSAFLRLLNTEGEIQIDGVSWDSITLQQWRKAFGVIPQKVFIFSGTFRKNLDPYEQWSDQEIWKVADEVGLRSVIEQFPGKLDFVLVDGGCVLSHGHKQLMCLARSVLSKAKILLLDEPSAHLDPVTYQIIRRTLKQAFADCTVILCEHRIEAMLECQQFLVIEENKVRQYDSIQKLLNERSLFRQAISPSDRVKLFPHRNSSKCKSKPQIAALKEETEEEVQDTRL
T2 sequence (P13569 with tags, fused parts or gaps DEL508-508): as above

Structure (SMILES)	EC50 [1] [µM]	EC50 [2] [µM]
COc1cc(C#N)ccc1-c1cn(Cc2cn(-c3ccccc3F)nn2)c2ncnc(N)c12 [Example 79, 4-(4-Amino-7-{[1-(2-fluorophenyl)-1H-1,2,3-triazol-4-yl]methyl}-7H-pyrrolo[2,3-d]pyrimidin-5-yl)-3-methoxybenzonitrile]	0.15	0.0752
Nc1ncnc2c1c(-c1ccc3[nH]ccc3c1)cn2Cc1cn(-c2ccccc2F)nn1 [Example 81, 7-{[1-(2-Fluorophenyl)-1H-1,2,3-triazol-4-yl]methyl}-5-(1H-indol-5-yl)-7H-pyrrolo[2,3-d]pyrimidin-4-amine]	0.338	0.379
Nc1ncnc2c1c(-c1ccc(OC(F)F)cc1)cn2Cc1cn(-c2ccccc2F)nn1 [Example 83, 5-[4-(Difluoromethoxy)phenyl]-7-{[1-(2-fluorophenyl)-1H-1,2,3-triazol-4-yl]methyl}-7H-pyrrolo[2,3-d]pyrimidin-4-amine]	0.0398	0.0719
COc1ccc(-c2cn(Cc3cn(-c4ccccc4F)nn3)c3ncnc(N)c23)cc1 [Example 85, 7-{[1-(2-Fluorophenyl)-1H-1,2,3-triazol-4-yl]methyl}-5-(4-methoxyphenyl)-7H-pyrrolo[2,3-d]pyrimidin-4-amine]	0.0569	0.0734
Cn1ncc2cc(-c3cn(Cc4cn(-c5ccccc5F)nn4)c4ncnc(N)c34)ccc21 [Example 86, 7-{[1-(2-Fluorophenyl)-1H-1,2,3-triazol-4-yl]methyl}-5-(1-methyl-1H-indazol-5-yl)-7H-pyrrolo[2,3-d]pyrimidin-4-amine]	0.659	0.539
COc1ccc(-c2cn(C(C)c3cn(-c4ccccc4F)nn3)c3ncnc(N)c23)c(OC)c1 (centres unmarked) [Example 87, 5-(2,4-Dimethoxyphenyl)-7-{1-[1-(2-fluorophenyl)-1H-1,2,3-triazol-4-yl]ethyl}-7H-pyrrolo[2,3-d]pyrimidin-4-amine]	0.055	0.102
CSc1ccc(-c2cn(C(C)c3cn(-c4ccccc4F)nn3)c3ncnc(N)c23)cc1 (centres unmarked) [Example 88, 7-{1-[1-(2-Fluorophenyl)-1H-1,2,3-triazol-4-yl]ethyl}-5-[4-(methylsulfanyl)phenyl]-7H-pyrrolo[2,3-d]pyrimidin-4-amine]	0.0382	0.0413
CC(c1cn(-c2ccccc2F)nn1)n1cc(-c2ccc(OC(F)F)cc2)c2c(N)ncnc21 (centres unmarked) [Example 89, 5-[4-(Difluoromethoxy)phenyl]-7-{1-[1-(2-fluorophenyl)-1H-1,2,3-triazol-4-yl]ethyl}-7H-pyrrolo[2,3-d]pyrimidin-4-amine]	0.0359	0.0738
CSc1ccc(-c2cn(C(C)c3cn(-c4ccccc4F)nn3)c3ncnc(N)c23)c(F)c1 (centres unmarked) [Example 90, 5-[2-Fluoro-4-(methylsulfanyl)phenyl]-7-{1-[1-(2-fluorophenyl)-1H-1,2,3-triazol-4-yl]ethyl}-7H-pyrrolo[2,3-d]pyrimidin-4-amine]	0.0348	0.0455
CC(c1cn(-c2ccccc2F)nn1)n1cc(-c2ccccc2)c2c(N)ncnc21 (centres unmarked) [Example 94, 7-{1-[1-(2-Fluorophenyl)-1H-1,2,3-triazol-4-yl]ethyl}-5-phenyl-7H-pyrrolo[2,3-d]pyrimidin-4-amine]	0.14	0.361
CC(=O)c1ccc(-c2cn(C(C)c3cn(-c4ccccc4F)nn3)c3ncnc(N)c23)cc1 (centres unmarked) [Example 96, 1-[4-(4-Amino-7-{1-[1-(2-fluorophenyl)-1H-1,2,3-triazol-4-yl]ethyl}-7H-pyrrolo[2,3-d]pyrimidin-5-yl)phenyl]ethanone]	0.133	0.0986
CC(c1cn(-c2ccccc2F)nn1)n1cc(-c2cccc(C(F)(F)F)c2)c2c(N)ncnc21 (centres unmarked) [Example 97, 7-{1-[1-(2-Fluorophenyl)-1H-1,2,3-triazol-4-yl]ethyl}-5-[3-(trifluoromethyl)phenyl]-7H-pyrrolo[2,3-d]pyrimidin-4-amine]	0.164	0.231
CC(c1cn(-c2ccccc2F)nn1)n1cc(-c2ccc(Cl)c(F)c2)c2c(N)ncnc21 (centres unmarked) [Example 98, 5-(4-Chloro-3-fluorophenyl)-7-{1-[1-(2-fluorophenyl)-1H-1,2,3-triazol-4-yl]ethyl}-7H-pyrrolo[2,3-d]pyrimidin-4-amine]	0.028	0.0409
CC(c1cn(-c2ccccc2F)nn1)n1cc(-c2cc(F)cc(Cl)c2)c2c(N)ncnc21 (centres unmarked) [Example 99, 5-(3-Chloro-5-fluorophenyl)-7-{1-[1-(2-fluorophenyl)-1H-1,2,3-triazol-4-yl]ethyl}-7H-pyrrolo[2,3-d]pyrimidin-4-amine]	0.0359	0.05
CC(c1cc(-c2ccccc2F)no1)n1cc(-c2ccc(N(C)C)cc2)c2c(N)ncnc21 (centres unmarked) [Example 105, 5-[4-(Dimethylamino)phenyl]-7-{1-[3-(2-fluorophenyl)-1,2-oxazol-5-yl]ethyl}-7H-pyrrolo[2,3-d]pyrimidin-4-amine]	0.075	0.374
CC(c1cc(-c2ccccc2F)no1)n1cc(-c2ccc(-c3ncns3)cc2)c2c(N)ncnc21 (centres unmarked) [Example 107, 7-{1-[3-(2-Fluorophenyl)-1,2-oxazol-5-yl]ethyl}-5-[4-(1,2,4-thiadiazol-5-yl)phenyl]-7H-pyrrolo[2,3-d]pyrimidin-4-amine]	0.122	0.172
COc1cnc(-c2cn(C(C)c3cc(-c4ccccc4F)no3)c3ncnc(N)c23)cn1 (centres unmarked) [Example 191, 7-{1-[3-(2-Fluorophenyl)-1,2-oxazol-5-yl]ethyl}-5-(5-methoxypyrazin-2-yl)-7H-pyrrolo[2,3-d]pyrimidin-4-amine]	0.103	0.918
N#Cc1ccc(-c2cn(Cc3cnc(-c4ccccc4F)[nH]3)c3ncnc(N)c23)cc1F [Example 192, 4-(4-Amino-7-{[2-(2-fluorophenyl)-1H-imidazol-5-yl]methyl}-7H-pyrrolo[2,3-d]pyrimidin-5-yl)-2-fluorobenzonitrile]	0.118	0.083
COc1ncccc1-c1cn(Cc2cnc(-c3ccccc3F)[nH]2)c2ncnc(N)c12 [Example 193, 7-{[2-(2-Fluorophenyl)-1H-imidazol-5-yl]methyl}-5-(2-methoxypyridin-3-yl)-7H-pyrrolo[2,3-d]pyrimidin-4-amine]	0.117	0.0438
COc1nc(C)ccc1-c1cn(Cc2cn(-c3ccccc3F)nn2)c2ncnc(N)c12 [Example 194, 7-{[1-(2-Fluorophenyl)-1H-1,2,3-triazol-4-yl]methyl}-5-(2-methoxy-6-methylpyridin-3-yl)-7H-pyrrolo[2,3-d]pyrimidin-4-amine]	0.0122	0.0286
COc1ncc(F)cc1-c1cn(Cc2cn(-c3ccccc3F)nn2)c2ncnc(N)c12 [Example 195, 5-(5-Fluoro-2-methoxypyridin-3-yl)-7-{[1-(2-fluorophenyl)-1H-1,2,3-triazol-4-yl]methyl}-7H-pyrrolo[2,3-d]pyrimidin-4-amine]	0.0253	0.0636
Nc1ncnc2c1c(-c1cccnc1OC(F)F)cn2Cc1cn(-c2ccccc2F)nn1 [Example 196, 5-[2-(Difluoromethoxy)pyridin-3-yl]-7-{[1-(2-fluorophenyl)-1H-1,2,3-triazol-4-yl]methyl}-7H-pyrrolo[2,3-d]pyrimidin-4-amine]	0.049	0.0156

Reference: patent publication US12612409B2, “Pyrrolopyrimidines as CFTR potentiators” (Cystic Fibrosis Foundation, priority 2016, dated 2026)
